Measurements taken from patent US20100063065A1 (Inpharmatica Limited, priority 2005, published 2010).

Target: T1, PPARδ (Homo sapiens, UniProt Q03181)
T1 construct: fused to amino acids 147-441 of PPARδ downstream of CMV promoter; expressed in transfected cells; host or cells: HEK293 cells, transiently transfected with pFACMV-PPARδ using Fugene
T1 sequence (Q03181 147-441): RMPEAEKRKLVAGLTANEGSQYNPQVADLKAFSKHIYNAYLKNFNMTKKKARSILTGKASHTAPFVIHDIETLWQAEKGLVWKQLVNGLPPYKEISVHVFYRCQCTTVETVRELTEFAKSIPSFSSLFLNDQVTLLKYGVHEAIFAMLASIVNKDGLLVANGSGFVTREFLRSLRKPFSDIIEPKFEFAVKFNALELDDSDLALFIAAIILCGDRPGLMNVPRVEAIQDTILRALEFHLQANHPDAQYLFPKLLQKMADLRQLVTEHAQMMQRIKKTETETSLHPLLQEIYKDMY
Assay: Transactivation assay (PPARδ GAL4 assay) in transiently transfected HEK293 cells
Type: cell-based
Details: luciferase reporter
Summary of the method: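 Luciferase luminescence after 24 h compound treatment (0-30 μM final, OptiMEM, 37° C./5% CO2) gave EC50 by sigmoidal fitting, with activity normalised to GW501516 as percent. Reporter system: transiently transfected HEK293 expressing GAL4 DNA-binding domain fused to human PPARδ aa 147-441, plus 5×GAL4-driven luciferase.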

Row | Compound | EC50 (Table 1) [nM] | EC50 (Table 2) [nM]
1 | CCc1cc(C(=O)c2ccc(Cl)cc2)c(NC(=O)CC2(CC(=O)O)CCCC2)s1 [Example 26, (1-{[3-(4-Chloro-benzoyl)-5-ethyl-thiophen-2-ylcarbamoyl]-methyl}-cyclopentyl)-acetic acid] | 1000 to 30000 | 
2 | CCc1cc(C(=O)c2ccc(OC)cc2)c(NC(=O)CCCC(=O)O)s1 [Example 7, 4-[5-Ethyl-3-(4-methoxy-benzoyl)-thiophen-2-ylcarbamoyl]-butyric acid] | 1000 to 30000 | 
3 | COc1ccc(C(=O)c2cc(Cl)sc2NC(=O)CSCC(=O)O)cc1 [Example 66, {[5-Chloro-3-(4-methoxy-benzoyl)-thiophen-2-ylcarbamoyl]-methylsulfanyl}-acetic acid] | 1000 to 30000 | 
4 | CCc1cc(C(=O)c2ccc(OC(F)(F)F)cc2)c(NC(=O)C(C)N2[C@@H](C(=O)O)CC[C@@H]2C)s1 (stereo partly drawn) [Example 186, (2R,5S)-1-{1-[5-Ethyl-3-(4-trifluoromethoxy-benzoyl)-thiophen-2-ylcarbamoyl]-ethyl}-5-methyl-pyrrolidine-2-carboxylic acid] |  | < 100
5 | CCc1cc(C(=O)c2nc3ccccc3s2)c(NC(=O)CSCC(=O)O)s1 [Example 139, {[3-(Benzothiazole-2-carbonyl)-5-ethyl-thiophen-2-ylcarbamoyl]-methylsulfanyl}-acetic acid] |  | 1000 to 30000
6 | CCc1cc(C(=O)c2ccc(OC(F)(F)F)c(Cl)c2)c(NC(=O)CN[C@H](C(=O)O)C(C)C)s1 [Example 169, (S)-2-({[3-(3-Chloro-4-trifluoromethoxy-benzoyl)-5-ethyl-thiophen-2-ylcarbamoyl]-methyl}-amino)-3-methyl-butyric acid] |  | 100 to 1000
7 | CCc1cc(C(=O)c2ccc(Cl)c(Cl)c2)c(NC(=O)CSCC(=O)O)s1 [Example 28, {[3-(3,4-Dichloro-benzoyl)-5-ethyl-thiophen-2-ylcarbamoyl]-methylsulfanyl}-acetic acid] | < 100 | 
8 | CCc1cc(C(=O)c2ccc(Cl)cc2)c(NC(=O)CC(C)(C)CC(=O)O)s1 [Example 25, 4-[3-(4-Chloro-benzoyl)-5-ethyl-thiophen-2-ylcarbamoyl]-3,3-dimethyl-butyric acid] | 1000 to 30000 | 
9 | CCc1cc(C(=O)c2nc3cc(Cl)ccc3s2)c(NC(=O)CSCC(=O)O)s1 [Example 155, {[3-(5-Chloro-benzothiazole-2-carbonyl)-5-ethyl-thiophen-2-ylcarbamoyl]-methylsulfanyl}-acetic acid] |  | 100 to 1000
10 | CCc1cc(C(=O)c2ccc(OC(F)(F)F)cc2)c(NC(=O)c2cccc(SCC(=O)O)c2)s1 [Example 98, {3-[5-Ethyl-3-(4-trifluoromethoxy-benzoyl)-thiophen-2-ylcarbamoyl]-phenylsulfanyl}-acetic acid] | 100 to 1000 | 
11 | CCc1cc(C(=O)c2ccc(OC(F)(F)F)cc2)c(NC(=O)CN(CC)[C@@H](C)C(=O)O)s1 [Example 125, (S)-2-(Ethyl-{[5-ethyl-3-(4-trifluoromethoxy-benzoyl)-thiophen-2-ylcarbamoyl]-methyl}-amino)-propionic acid] |  | 100 to 1000
12 | CCc1cc(C(=O)c2ccc(OC(F)(F)F)cc2)c(NC(=O)CN2CCCC2C(=O)O)s1 (stereo not drawn) [Example 189, 1-{[5-Ethyl-3-(4-trifluoromethoxy-benzoyl)-thiophen-2-ylcarbamoyl]-methyl}-pyrrolidine-2-carboxylic acid] |  | < 100
13 | CCc1cc(C(=O)c2ccc(F)c(Cl)c2)c(NC(=O)CC(C)(C)CC(=O)O)s1 [Example 32, 4-[3-(3-Chloro-4-fluoro-benzoyl)-5-ethyl-thiophen-2-ylcarbamoyl]-3,3-dimethyl-butyric acid] | 1000 to 30000 | 
14 | CCc1cc(C(=O)c2ccc(F)cc2)c(NC(=O)CSc2ccc(OCC(=O)O)cc2)s1 [Example 135, (4-{[5-Ethyl-3-(4-fluoro-benzoyl)-thiophen-2-ylcarbamoyl]-methylsulfanyl}-phenoxy)-acetic acid] |  | 1000 to 30000
15 | CCc1cc(C(=O)c2cnc(OC(C)C)c(Cl)c2)c(NC(=O)CSCC(=O)O)s1 [Example 59, {[3-(5-Chloro-6-isopropoxy-pyridine-3-carbonyl)-5-ethyl-thiophen-2-ylcarbamoyl]-methylsulfanyl}-acetic acid] | 100 to 1000 | 
